In BindingDB's records for patent US9790180 (REGENACY PHARMACEUTICALS, LLC, 2017) one finds IC50 data, which are given here for three compounds.

One assay addresses Histone deacetylase 2 (Homo sapiens, UniProt Q92769).
The target in the next assay is Histone deacetylase 3 (Homo sapiens, UniProt O15379).

SMILES strings stand for the structures.

Chain of Histone deacetylase 2 (Q92769 whole entry): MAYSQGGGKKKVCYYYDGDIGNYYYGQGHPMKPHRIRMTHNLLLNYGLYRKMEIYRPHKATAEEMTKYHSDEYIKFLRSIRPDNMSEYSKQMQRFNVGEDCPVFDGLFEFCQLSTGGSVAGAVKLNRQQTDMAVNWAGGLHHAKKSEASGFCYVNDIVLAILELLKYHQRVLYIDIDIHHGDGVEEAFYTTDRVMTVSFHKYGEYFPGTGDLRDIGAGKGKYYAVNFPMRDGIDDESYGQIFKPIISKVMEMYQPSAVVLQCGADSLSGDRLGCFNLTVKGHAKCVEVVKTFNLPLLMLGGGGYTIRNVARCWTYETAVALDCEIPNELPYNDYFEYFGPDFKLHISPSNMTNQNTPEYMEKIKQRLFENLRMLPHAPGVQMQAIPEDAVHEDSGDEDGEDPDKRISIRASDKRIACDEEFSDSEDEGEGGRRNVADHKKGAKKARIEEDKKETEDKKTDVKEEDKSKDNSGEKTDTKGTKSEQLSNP
Chain of Histone deacetylase 3 (O15379 whole entry): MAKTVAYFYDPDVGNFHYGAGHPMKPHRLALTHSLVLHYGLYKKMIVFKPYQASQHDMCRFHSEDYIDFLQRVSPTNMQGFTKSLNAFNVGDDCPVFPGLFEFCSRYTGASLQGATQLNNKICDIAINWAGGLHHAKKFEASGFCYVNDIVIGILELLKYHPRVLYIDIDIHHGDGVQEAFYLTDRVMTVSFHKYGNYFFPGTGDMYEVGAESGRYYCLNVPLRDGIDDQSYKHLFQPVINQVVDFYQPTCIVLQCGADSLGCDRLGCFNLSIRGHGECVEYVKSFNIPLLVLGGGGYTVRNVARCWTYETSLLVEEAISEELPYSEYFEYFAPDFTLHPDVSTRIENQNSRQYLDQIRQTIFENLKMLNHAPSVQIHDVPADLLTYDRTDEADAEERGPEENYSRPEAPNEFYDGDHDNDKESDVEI

By IC50 is commonly meant the midpoint of a concentration-inhibition curve. High values mean a need for much substance, low ones inhibition by little substance. Regarding `CN(c1ncc(C(=O)Nc2cc(-c3ccccc3)ccc2N)cn1)C1CCN(C(=O)Cc2c[nH]c3ccccc23)CC1` [US9790180, ID 033], the IC50 at Histone deacetylase 2 was 211 nM; on Histone deacetylase 3, > 2000 nM.

On to `CC1(Nc2ncc(C(=O)Nc3cc(-c4ccccc4)ccc3N)cn2)CCNCC1` [US9790180, ID 041], for which the IC50 against Histone deacetylase 2 stood at 26 nM; on Histone deacetylase 3 it was 252 nM.

For the compound `Nc1ccc(-c2ccccc2)cc1NC(=O)c1cnc(NC2CCN(C(=O)Cc3c[nH]c4ccccc34)CC2)nc1` [US9790180, ID 035], the IC50 against Histone deacetylase 2 amounted to 196 nM; at Histone deacetylase 3, 1400 nM.
